Results as given in patent US20030180349A1, “Respiratory infection prevention and treatment with terpene-containing compositions” (priority 2001, published 2003).

Assays:
[1] = Solution levels of terpenes in water (no surfactant, high-shear blending); type: physicochemical; details: for Solution levels for various terpenes: Level: maximum level solubilized in water without surfactant
Mycoplasma pneumoniae = assay: In vitro effectiveness against Mycoplasma pneumoniae (color change); type: cell-based; details: 40 hours treatment
Experimental: Terpene beta-ionone or L-carvone was first mixed well with Tween® 80 to have a final Tween® 80 concentration of 5%. This mixture was then used to make concentrations of 2500 ppm in sterile phosphate buffer saline (PBS) by blending the mixture in PBS for 40 seconds. This 2500 ppm solution was then diluted to 500 ppm, 250 ppm, and 125 ppm with PBS.
PBS containing 25 ppm Tween® 80 or PBS alone was used to treat cells suspension as controls.
A log phase (2-3-day old) culture of Mycoplasma pneumoniae was mixed with each of the above three concentrations of terpene at 1:1 (volume) ratio (in this case, 1 mL of cell suspension was added to 1 mL of terpene).
The culture and terpene mixture was then incubated at 37° C. for 40 hours. After 40 hours of treatment, 10-fold serial dilution was performed to 10 (−10) by first taking 0.1 mL of the treated culture suspension was added into 0.9 mL of fresh SP4 (Whitcomb (1983); SP4 media is commercially available (Remel, Lenexa, Kans., USA)). All the tubes were then incubated at 37° C., and a color change of the medium was used for the indication of the cells that either were killed or survived from the treatment. Color change was from red to yellow because Mycoplasma pneumoniae produces acid during its growth.

erythrocytes = type: cell-based, Human
Experimental: These mixtures were incubated for 20 minutes.

E. coli = details: cited from earlier work
[2] = Break down / loss of potency of terpenes in the presence of oxygen; type: physicochemical; details: 500 ppm solution
From the text: Terpenes will break down in the presence of oxygen. Citral, for example, is an aldehyde and will decay (oxygenate) over a period of days.

Mycoplasma iowae = assay: Effect of citral on growth of Mycoplasma iowae (color changing units); type: cell-based
Experimental: M. iowae is a known avian respiratory disease agent. […] Mycoplasma iowae were incubated at 37° C. in R2 (Chen, T. A., J. M. Wells, and C. H. Liao. 1982. Cultivation in vitro: spiroplasmas, plant mycoplasmas, and other fastidious, walled prokaryotes. pp. 417-446. in Phytopathogenic prokaryotes, V. 2, M. S. Mount and G. H. Lacy (ed.), Academic Press, New York) broth. One to 2-day old cultures were observed under a dark-field microscope to ensure cells were in filamentous form before treatment. Cell suspensions were vortexed to ensure they were evenly mixed before and an aliquot of 0.5 mL was dispensed into a sterile tube. […] The treated cell suspension was incubated for 24 hrs before the color changing units (CCUs) were determined by a 10-fold serial dilution in fresh R2. All treatments were duplicated. […] All culture tubes were incubated for 15 days before final readings were taken. A comparison was made of the effect of 24-hr and 48-hr treatment times. The CCUs were determined by taking treated cell suspension from the same treated tube 24 hrs or 48 hrs after treatment.

H. pylori = details: cited from earlier work
[3] = 62.5 ppm (5% Tween 80, PBS), three days after 10-fold dilution
[4] = 62.5 ppm, 6 days after 10-fold dilution
[5] = 125 ppm (5% Tween 80, PBS), three days after 10-fold dilution
[6] = 125 ppm, 6 days after 10-fold dilution
[7] = 250 ppm (5% Tween 80, PBS), three days after 10-fold dilution
[8] = 250 ppm, 6 days after 10-fold dilution

Molecule	Solution levels for various terpenes: Level [1] [ppm]	color change of medium / killing effect (Mycoplasma pneumoniae; [3])	color change of medium / killing effect (Mycoplasma pneumoniae; [4])	color change of medium / killing effect (Mycoplasma pneumoniae; [5])	color change of medium / killing effect (Mycoplasma pneumoniae; [6])	color change of medium / killing effect (Mycoplasma pneumoniae; [7])	color change of medium / killing effect (Mycoplasma pneumoniae; [8])	Concentration at which erythrocytes lyse (erythrocytes) [ppm]	also measured
CC(=O)/C=C/C1=C(C)CCCC1(C)C [b-ionone]	500	did not change color at all	only the first tube	did not change color at all	may have completely killed all cells	did not change color at all	may have completely killed all cells	2000	
CC(C)=CCCC(C)=CC=O [Citral, 3,7-dimethyl-2,6-octadien-1-al]									stable suspension can be formed up to ([1]; suspension): about 2500 ppm; citral concentration with bactericidal effect (E. coli): 0.08%; citral in growth media that reduced the concentration of E. coli (E. coli): more than 0.01%; time in which solution loses half its potency [2]: 2-3 weeks; concentration that will lyse human erythrocytes (erythrocytes; human, 20 min): about 1000 ppm; color changing units after treatment (Mycoplasma iowae; 62.5 ppm, 24 hr (Table 4)): 10^6 CCUs; color changing units after treatment (Mycoplasma iowae; 62.5 ppm, 24 hrs (Table 3)): 10^8 CCUs; color changing units after treatment (Mycoplasma iowae; 62.5 ppm, 48 hr (Table 4)): 10^6 CCUs; color changing units after treatment (Mycoplasma iowae; 125 ppm, 24 hr (Table 4)): 10^7 CCUs; color changing units after treatment (Mycoplasma iowae; 125 ppm, 24 hrs (Table 3)): 10^8 CCUs; color changing units after treatment (Mycoplasma iowae; 125 ppm, 48 hr (Table 4)): 10^6 CCUs; color changing units after treatment (Mycoplasma iowae; 250 ppm, 24 hr (Table 4)): 10^5 CCUs; color changing units after treatment (Mycoplasma iowae; 250 ppm, 24 hrs (Table 3)): 10^7 CCUs; color changing units after treatment (Mycoplasma iowae; 250 ppm, 48 hr (Table 4)): 10^4 CCUs
L-carvone		no killing effects	second and third tube	no killing effects	second and third tube	no killing effects	second and third tube	250	
CC(C)=CCC/C(C)=C/CO [Geraniol]	500								concentration that inhibited the growth of H. pylori in vitro (H. pylori): 2 mg/L
Terpeniol	500								
C=C(C)C1CC=C(C)C(=O)C1 (stereo not drawn) [Carvone]	500								
